# Source: publication PMC4077311, “A Huge PVDF Adsorption Difference Between Resveratrol and ε-Viniferin Allows to Quantitatively Purify Them and to Assess Their Anti-Tyrosinase Property” (Chromatographia, 2014)
# Biological target: Mushroom tyrosinase (Agaricus bisporus, UniProt C7FF04)
# Experiment: Tyrosinase L-DOPA oxidase inhibition activity
# Procedure: Then, 40 μL L-DOPA (2.5 mM) and 80 μL phosphate buffer were added to the solution. Optical density (OD) of each assay, relative to the control, was measured at 492 nm by using a microplate reader (Tecan® Infinite M200 spectrophotometer).
# Results expression: Inhibition of enzyme activity by each sample is expressed as % inhibition compared to the control and represented by the following equation: [1 − (ODsample × ODcontrol^−1)] × 100.
# Mushroom tyrosinase, sequence (G1K3P4 entry or part of it): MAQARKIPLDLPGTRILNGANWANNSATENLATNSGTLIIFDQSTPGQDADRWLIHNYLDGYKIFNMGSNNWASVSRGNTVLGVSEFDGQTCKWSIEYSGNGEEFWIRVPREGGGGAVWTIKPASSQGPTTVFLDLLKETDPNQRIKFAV
# Mushroom tyrosinase, sequence (C7FF04 1-392): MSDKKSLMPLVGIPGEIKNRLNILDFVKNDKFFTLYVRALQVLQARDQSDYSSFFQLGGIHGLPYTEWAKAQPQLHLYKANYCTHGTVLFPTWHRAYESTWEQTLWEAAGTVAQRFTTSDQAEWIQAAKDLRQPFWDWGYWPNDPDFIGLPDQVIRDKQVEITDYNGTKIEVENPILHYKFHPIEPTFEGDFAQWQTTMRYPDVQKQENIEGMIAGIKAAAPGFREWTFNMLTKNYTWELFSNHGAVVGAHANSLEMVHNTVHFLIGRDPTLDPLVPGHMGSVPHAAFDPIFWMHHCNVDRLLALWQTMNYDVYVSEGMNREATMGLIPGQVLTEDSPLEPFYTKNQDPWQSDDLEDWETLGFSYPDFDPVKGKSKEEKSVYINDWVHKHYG
row,SMILES,Tyrosinase inhibitory activity in words
1,"Oc1ccc(/C=C/c2cc(O)cc(O)c2)cc1 [trans-Resveratrol 1, (E)-5-(4-hydroxystyryl)benzene-1,3-diol]",moderate inhibitory activity
2,"Oc1ccc(C=Cc2cc(O)cc3c2[C@H](c2cc(O)cc(O)c2)[C@@H](c2ccc(O)cc2)O3)cc1 [trans-ε-Viniferin 2, 5-[(2S, 3S)-6-hydroxy-2-(4-hydroxyphenyl)-4-(4-hydroxystyryl)-2,3-dihydrobenzofuran-3-yl]benzene-1,3-diol]",the most active tyrosinase inhibitor ever tested by us
